Assay results published in patent US20040220086A1, “Methods and materials for targeting and affecting selected cells” (priority 2001, published 2004).

Key:
[1] = cited from earlier work
[2] = tested on: NADH-oxidase; conditions: plasma membrane redox enzyme; cited from earlier work
[3] = tested on: normal or transferrin receptor-negative cells; conditions: cited from earlier work
[4] = tested on: drug-resistant K562 cells; conditions: cited from earlier work
[5] = tested on: leukemic cells; conditions: cells from peripheral blood and marrow of leukemia patients; cited from earlier work
[6] = tested on: drug-resistant HL60 cells; conditions: cited from earlier work
[7] = tested on: human mesothelioma cells; conditions: cited from earlier work
[8] = tested on: leukemic cells in peripheral blood; conditions: cited from earlier work
[9] = tested on: metastatic sarcoma; conditions: person, 2000 as printed
Procedure: This concerns a person with metastatic disease from a sarcoma of their right atrium who was treated beginning August, 2000 by using conventional protocols.

[10] = nude mice; cited from earlier work

Q: With `O=C(O)CCCc1ccc(N(CCCl)CCCl)cc1` [chlorambucil] as the molecule, how does the “survival of treated mice” value [1] read?
A: Its value is “died”.

Q: For `COc1cccc2c1C(=O)c1c(O)c3c(c(O)c1C2=O)C[C@@](O)(C(=O)CO)C[C@@H]3O[C@H]1C[C@H](N)[C@H](O)[C@H](C)O1` [doxorubicin, reference compound], which “inhibition of NADH-oxidase” value [2] is on record?
A: The value was “efficient inhibitor”.

Q: For “human transferrin-chlorambucil conjugates: human transferrin conjugated to chlorambucil, reference 51”, which “survival of treated mice” value [1] is on record?
A: The value was “survived”.

Q: What about the “toxicity compared with free chlorambucil” value ([1]; mice) of the same molecule?
A: Its value is “less toxic”.

Q: Which binding to cells [3] does the source give for transferrin-doxorubicin conjugates here?
A: The binding to cells was “do not bind”.

Q: And the “killing of cells resistant to doxorubicin” value [4]?
A: The value was “effective in killing”.

Q: And the “selective killing of leukemic cells” value [5]?
A: The value was “kill selectively”.

Q: What about the “inhibition of NADH-oxidase” value [2] of the same molecule?
A: The value was “inhibit”.

Q: And the “killing of cells resistant to doxorubicin” value [6]?
A: Its value is “effective in killing”.

Q: What about the “survival compared with free doxorubicin” value ([7]; nude mice bearing drug-resistant human tumors) of the same molecule?
A: Its value is “survive longer”.

Q: What about the “life prolongation compared to animals treated only with doxorubicin” value ([7]; nude mice, human mesothelioma cells) of the same molecule?
A: The value was “significantly prolonged life”.

Q: What about the “decrease of number of leukemic cells in peripheral blood” value ([8]; 7 patients, within 10-days following therapy) of the same molecule?
A: Its value is 86%.

Q: What about the “extension of disease by bone marrow biopsies before and after treatment” value ([8]; acute leukemia patients) of the same molecule?
A: The value was “no extension of disease”.

Q: And the toxic effects ([8]; seven acute leukemia patients, 1 mg/day intravenously for 5 days)?
A: Its toxic effects is “no toxic effects”.

Q: What about the “radiological evidence of tumor” value ([9]; by January) of the same molecule?
A: The value was “no radiological evidence of tumor”.

Q: And the “metastatic lesions of the lungs” value ([9]; treatment begun November 2000, by January)?
A: The value was “substantially cleared”.

B1: neocarzinostatin (protein, UniProt P0A3R9 35-147, looked up)
Neocarzinostatin: AAPTATVTPSSGLSDGTVVKVAGAGLQAGTAYDVGQCAWVDTGVLACNPADFSSVTADANGSASTSLTVRRSFEGFLFDGTRWGTVDCTTAACQVGLSDAAGNGPEGVAISFN
modifications: with enediyne chromophore
Q: Which half-life [10] does the source give for B1 here?
A: The half-life was 7 min.
